# Where “and” joins values, the source holds several entries; their conditions need not be identical. Equal values may be shown once.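 48-hour exposure; five concentrations; linearly interpolated endpoints. GI50 marks 50% less growth. TGI marks complete inhibition of growth.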
# Key:
# Assay in all cases: inhibition of tumour cell growth, NCI panel, 48 h
# 786-0 renal = system: 786-0 renal
# ACHN renal = system: ACHN renal
# BT-549 breast = system: BT-549 breast
# HOP-62 NSCLC = system: HOP-62 NSCLC
# HOP-92 NSCLC = system: HOP-92 NSCLC
# MCF7 breast = system: MCF7 breast
# MDA-MB-231 breast = system: MDA-MB-231 breast
# PC-3 prostate = system: PC-3 prostate
# SF-268 CNS = system: SF-268 CNS
# SW-620 colon = system: SW-620 colon
Compound,GI50 (786-0 renal),TGI (786-0 renal),GI50 (ACHN renal),TGI (ACHN renal),GI50 (BT-549 breast),TGI (BT-549 breast),GI50 (HOP-62 NSCLC),TGI (HOP-62 NSCLC),GI50 (HOP-92 NSCLC),TGI (HOP-92 NSCLC),GI50 (MCF7 breast),TGI (MCF7 breast),GI50 (MDA-MB-231 breast),TGI (MDA-MB-231 breast),GI50 (PC-3 prostate),TGI (PC-3 prostate),GI50 (SF-268 CNS),TGI (SF-268 CNS),GI50 (SW-620 colon),TGI (SW-620 colon)
Nc1cccc(-c2nc3sccn3c2-c2ccnc(NCCCNS(=O)(=O)c3ccc(C(F)(F)F)cc3)n2)c1,5.74 µM,> 100 µM,3.34 µM,27.1 µM,2.95 µM,13.1 µM,5.16 µM,24.3 µM,11.4 µM,83.5 µM,4.04 µM,18.5 µM,4.85 µM,94 µM,2.41 µM,11.9 µM,3.97 µM,49.6 µM,8 µM,> 100 µM
Cc1nc(NC(=O)COc2cccc(/C=C3\COc4ccccc4C3=O)c2)sc1C,1.73 µM,3.22 µM,1.85 µM,3.77 µM,1.59 µM,3.28 µM,1.71 µM,3.37 µM,1.69 µM,3.83 µM,0.665 µM,2.83 µM,2.63 µM,7.41 µM,1.76 µM,4.05 µM,1.85 µM,3.5 µM,1.08 µM,2.39 µM
Cc1ccccc1NC(=O)N/C(N)=N/c1nc2ccccc2s1,0.0646 µM,> 100 µM,0.0729 µM,> 100 µM,0.128 µM,,0.11 µM,> 100 µM,,> 100 µM,0.0359 µM,> 100 µM,0.892 µM,> 100 µM,0.059 µM,> 100 µM,1.5 µM,> 100 µM,0.0427 µM,> 100 µM
CCNC(=O)Nc1ccc(-c2nc3c(c(N4CCOC[C@@H]4C)n2)CCN(C2COC2)C3)cc1,0.386 µM and 0.278 µM,29.1 µM and > 10 µM,0.285 µM and 0.395 µM,> 56.2 µM,0.175 µM and 0.115 µM,1.96 µM and 1.79 µM,0.443 µM and 0.391 µM,22 µM and > 7.45 µM,0.043 µM and 0.0307 µM,0.681 µM and 0.493 µM,0.121 µM and 0.115 µM,> 100 µM,0.392 µM and 0.267 µM,> 48.2 µM,0.166 µM and 0.106 µM,,0.591 µM and 0.29 µM,> 100 µM,0.793 µM and 0.61 µM,> 100 µM
COc1cc(C2=Nc3c/c(=C\c4c(O)[nH]c5ccc(Cl)cc45)ccc3=N2)cc(OC)c1OC,2.89 µM,9.91 µM,6.67 µM,24.2 µM,2.51 µM,9.94 µM,1.95 µM,4.09 µM,0.444 µM,6.35 µM,1.43 µM,3.56 µM,1.5 µM,6.26 µM,2.94 µM,14.3 µM,1.93 µM,3.78 µM,1.98 µM,4.41 µM
CN(C)c1cc2c(Nc3ccc4nc(Cc5ccccc5)[nH]c4c3)ncnc2cn1,12.5 µM,> 20.3 µM,11.8 µM,> 25 µM,> 18.2 µM,> 25 µM,> 15.6 µM,> 25 µM,> 25 µM,> 25 µM,> 15.3 µM,> 25 µM,> 17.4 µM,> 25 µM,> 25 µM,> 25 µM,> 23.4 µM,> 25 µM,> 21.5 µM,> 25 µM
CCCCCCCCCCCCCCCCCC(=O)[O][Sn]([CH2]CCC)([CH2]CCC)[CH2]CCC,0.152 µM,0.305 µM,0.163 µM,0.334 µM,0.138 µM,0.287 µM,0.158 µM,0.332 µM,0.0908 µM,0.273 µM,0.134 µM,0.267 µM,0.125 µM,0.361 µM,0.18 µM,0.463 µM,0.141 µM,0.337 µM,0.137 µM,0.289 µM
O=C1C(=O)c2ccccc2C=C1[N+](=O)[O-],,> 100 µM,,> 100 µM,,> 100 µM,,> 100 µM,,> 100 µM,,78.9 µM,,66.5 µM,,> 100 µM,,> 100 µM,,> 100 µM
COc1ccc(Nc2nc(NCc3ccccc3)c3ccccc3n2)cc1,6.31 µM,20.9 µM,3.38 µM,14.1 µM,4.57 µM,18.2 µM,10.1 µM,22.4 µM,2.59 µM,12.6 µM,1.81 µM,3.63 µM,4.3 µM,16.9 µM,2.87 µM,12.6 µM,8.85 µM,25.1 µM,2.82 µM,10.4 µM
CCOc1ccc(/C=N/Nc2cc(C)nc3ccc(Cl)cc23)cc1,1.57 µM,3.03 µM,1.78 µM,3.17 µM,1.61 µM,3.15 µM,2.31 µM,6.53 µM,2.1 µM,7.08 µM,1.67 µM,3.32 µM,1.83 µM,3.38 µM,1.51 µM,3.14 µM,2.05 µM,3.9 µM,1.97 µM,4.02 µM
N#CC(NC12CC3CC(CC(C3)C1)C2)c1ccccc1 (stereo not given),,> 100 µM,,> 100 µM,,> 100 µM,,> 100 µM,,> 100 µM,,> 100 µM,,> 100 µM,,> 100 µM,,> 100 µM,,> 100 µM
O=C(/C=C/c1ccccc1Cl)c1ccc(O)cc1,15.8 µM,30 µM,6.99 µM,19.2 µM,2.3 µM,6.76 µM,20.4 µM,37.3 µM,6.75 µM,23.7 µM,2.45 µM,7.54 µM,13.6 µM,31 µM,5.65 µM,26.5 µM,8.91 µM,25.3 µM,2.89 µM,7.88 µM
COc1ccccc1/C=C1\CCC(CN(C)C)C1=O (stereo not given),,5.08 µM,,15.2 µM,,28.1 µM,,36.4 µM,,15.9 µM,,5.87 µM,,5.78 µM,,18 µM,,29.7 µM,,6 µM
CN(C)c1cc2c(cc1Sc1nc3c(N)nccc3n1CCNCC(C)(C)C)OCO2,3.89 µM,21.4 µM,0.573 µM,> 59.6 µM,4.22 µM,25 µM,2.39 µM,22.1 µM,0.334 µM,2.49 µM,0.311 µM,17.9 µM,0.585 µM,17.1 µM,0.615 µM,28.8 µM,1.08 µM,22.4 µM,0.383 µM,13.8 µM
O=C(O[C@H]1CN[C@H](C#Cc2cc3ncnc(Nc4ccc(Cc5ccccc5)cc4)c3s2)C1)N1CCOCC1,7.3 µM,> 25 µM,3.53 µM,> 25 µM,4.74 µM,10.6 µM,5.15 µM,> 14.1 µM,1.7 µM,11.5 µM,5.63 µM,> 20.6 µM,4.56 µM,14.2 µM,8.56 µM,> 25 µM,3.8 µM,10.6 µM,5.93 µM,17.7 µM
O=C(c1ccc(F)c(F)c1Nc1ccc(I)cc1F)N1CC(O)([C@H]2CCCCN2)C1,7.72 µM,21.7 µM,1.86 µM,15.8 µM,10.9 µM,23.9 µM,1.97 µM,17.3 µM,0.406 µM,2.77 µM,6.56 µM,21.3 µM,0.579 µM,5.26 µM,9.68 µM,22.3 µM,9.83 µM,23.4 µM,0.34 µM,15 µM
NC(=O)c1cccc(N)c1,> 100 µM,> 100 µM,> 100 µM,> 100 µM,> 100 µM,> 100 µM,> 100 µM,> 100 µM,> 100 µM,> 100 µM,> 100 µM,> 100 µM,> 100 µM,> 100 µM,> 100 µM,> 100 µM,> 100 µM,> 100 µM,> 100 µM,> 100 µM
NC(Cc1cc(Br)c(O)c(Br)c1)C(=O)O (stereo not given),,> 100 µM,,> 100 µM,,> 100 µM,,> 100 µM,,> 100 µM,,> 100 µM,,> 100 µM,,> 100 µM,,> 100 µM,,> 100 µM
O=Cc1ncc(-c2ccc(C(F)(F)F)cc2)c(NC2CCCCCC2)n1,> 10 µM,> 10 µM,> 10 µM,> 10 µM,> 10 µM,> 10 µM,> 10 µM,> 10 µM,> 10 µM,> 10 µM,> 10 µM,> 10 µM,> 10 µM,> 10 µM,> 10 µM,> 10 µM,> 10 µM,> 10 µM,> 10 µM,> 10 µM
O=S(=O)(c1ccc2c(c1)C(=NO)c1cc(S(=O)(=O)N3CCCCC3)ccc1-2)N1CCCCC1,0.212 µM and 0.186 µM,0.499 µM and 0.342 µM,0.188 µM and 0.163 µM,0.389 µM and 0.319 µM,0.173 µM and 0.179 µM,0.332 µM and 0.326 µM,0.168 µM and 0.0463 µM,0.36 µM and 0.105 µM,> 1 µM and 0.22 µM,> 1 µM and 0.524 µM,> 1 µM and 0.178 µM,> 1 µM and 0.344 µM,0.179 µM and 0.0562 µM,0.36 µM and 0.112 µM,0.263 µM and 0.171 µM,0.812 µM and 0.381 µM,0.215 µM and 0.12 µM,0.44 µM and 0.318 µM,0.197 µM and 0.0743 µM,0.437 µM and 0.174 µM
CC(/C=C/C=C/C=C/C=C/C=C/C(O)=C1/C(=O)C(CCC(=O)O)N(C)C1=O)=C\C(C)C(OC1CC(O)C(O)C(C)O1)C(C)C (stereo not given),,11.1 µM,,10.4 µM,,7.1 µM,,3.68 µM,,8.66 µM,,33.6 µM,,12.2 µM,,16.6 µM,,14 µM,,14.6 µM
COC(=O)C1=C(C(=O)Nc2cccnc2)C2OC1(C(Cc1ccccc1)Oc1ccccc1)C1OC21 (stereo not given),1.69 µM,3.33 µM,1.49 µM,3 µM,3.43 µM,12.8 µM,13.2 µM,26.1 µM,1.46 µM,3 µM,1.92 µM,5.33 µM,2.77 µM,6.52 µM,9.62 µM,21.9 µM,13 µM,27.9 µM,1.69 µM,3.58 µM
C[C@H]1O[C@@H](O[C@H]2[C@@H](O)C[C@H](O[C@H]3[C@@H](O)C[C@H](O[C@H]4CC[C@]5(C)C6C[C@@H](O)[C@]7(C)[C@@H](C8=CC(=O)OC8)CC[C@]7(O)C6CC[C@@H]5C4)O[C@@H]3C)O[C@@H]2C)C[C@H](O)[C@@H]1O (stereo not given in full),0.06 µM,0.16 µM,0.022 µM,0.115 µM,0.0246 µM,0.0928 µM,0.038 µM,0.102 µM,0.112 µM,0.529 µM,0.0521 µM,1.69 µM,0.265 µM,1.32 µM,0.0573 µM,0.783 µM,0.0253 µM,0.083 µM,0.049 µM,0.174 µM
Oc1c(Cl)cc(C(c2cc(Cl)c(O)c(Cl)c2)C(c2cc(Cl)c(O)c(Cl)c2)c2cc(Cl)c(O)c(Cl)c2)cc1Cl,3.49 µM,16.7 µM,5.21 µM,20.3 µM,3.23 µM,36.9 µM,6.28 µM,19.2 µM,3.44 µM,13.6 µM,3.18 µM,15.8 µM,6.22 µM,26.4 µM,,13.8 µM,5.09 µM,,6.6 µM,23 µM
COc1ccc(S(=O)(=O)Nc2cc(/C=C\c3cc(OC)c(OC)c(OC)c3)cc(OC)c2OC)cc1OC,0.444 µM,> 100 µM,0.928 µM,> 100 µM,0.664 µM,90.1 µM,17.6 µM,> 100 µM,0.207 µM,67.5 µM,0.484 µM,> 100 µM,2.43 µM,> 100 µM,0.374 µM,> 100 µM,20.8 µM,> 100 µM,0.478 µM,> 100 µM
Clc1cccc(Cn2cc(Cc3cn(Cc4cccc(Cl)c4)c4ccccc34)c3ccccc32)c1,> 100 µM,> 100 µM,> 100 µM,> 100 µM,> 100 µM,> 100 µM,> 100 µM,> 100 µM,22.5 µM,> 100 µM,> 100 µM,> 100 µM,52 µM,> 100 µM,> 100 µM,> 100 µM,> 100 µM,> 100 µM,> 100 µM,> 100 µM

# From PubChem BioAssay (NCI)
